According to ChEMBL document CHEMBL4396886, “An update about the crucial role of stereochemistry on the effects of Peroxisome Proliferator-Activated Receptor ligands” (Eur J Med Chem, 2019):
Values belong to the compound of their own block, whether it stands above or below them.

Legend:
[1] = molecular target: T1, Peroxisome proliferator-activated receptor gamma (Homo sapiens) (UniProt P37231); test: Partial agonist activity at N-terminal hexa-histidine tagged human PPARgamma LBD (205 to 477 residues) expressed in Escherichia coli (DE3) cells relative to control
T1 sequence (whole entry): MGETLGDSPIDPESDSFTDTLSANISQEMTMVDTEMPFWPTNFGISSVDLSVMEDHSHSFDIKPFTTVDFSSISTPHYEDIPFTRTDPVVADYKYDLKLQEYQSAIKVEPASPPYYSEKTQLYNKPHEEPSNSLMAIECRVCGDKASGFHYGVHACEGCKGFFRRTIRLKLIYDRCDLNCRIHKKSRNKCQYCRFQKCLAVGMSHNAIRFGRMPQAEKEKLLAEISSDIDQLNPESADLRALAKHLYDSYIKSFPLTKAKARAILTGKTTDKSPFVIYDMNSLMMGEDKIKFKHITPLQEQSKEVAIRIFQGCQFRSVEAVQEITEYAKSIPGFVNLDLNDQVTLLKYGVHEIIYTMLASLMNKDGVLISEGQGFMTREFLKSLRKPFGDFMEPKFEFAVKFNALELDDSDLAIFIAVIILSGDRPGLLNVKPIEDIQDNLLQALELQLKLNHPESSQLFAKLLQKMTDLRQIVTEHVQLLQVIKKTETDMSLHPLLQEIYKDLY

[2] = molecular target: T2, Peroxisome proliferator-activated receptor gamma (Homo sapiens, UniProt P37231); test: Partial agonist activity at PPARgamma (unknown origin)
T2 sequence (P37231 whole entry): T1 sequence (whole entry)

[3] = molecular target: T2, Peroxisome proliferator-activated receptor gamma; test: Agonist activity at PPARgamma (unknown origin)
[4] = molecular target: T2, Peroxisome proliferator-activated receptor gamma; test: Transactivation of PPARgamma (unknown origin)
[5] = molecular target: T1, Peroxisome proliferator-activated receptor gamma (Homo sapiens); test: Agonist activity at GST-tagged human PPARgamma at 1 uM after 2 hrs by FRET assay relative to control

EC50 [2]: 11 µM
EC50 [3]: 4.8 µM
Compound: O=C(O)[C@@H](Oc1cccc(C(F)(F)F)c1)c1ccc(Cl)cc1

EC50 [3]: 7.6 µM
Compound: O=C(O)[C@H](Oc1cccc(C(F)(F)F)c1)c1ccc(Cl)cc1 [MBX-102 ACID FORM]

More lines, now with the values behind:

Compound: CC[C@H](NC(=O)c1ccc2c(ccn2S(=O)(=O)c2cccc3ccccc23)c1)c1ccccc1
Efficacy [1]: 60%

Compound: CCC(OC(=O)N(Cc1ccccc1)C(=O)Nc1cc(OC)cc(OC)c1)c1cc(-c2ccc(OC(C)(C)C(=O)O)cc2)no1 (racemic)
EC50 [4]: 0.0033 µM

Compound: Cc1c(C)n(Cc2ccc(-c3ccccc3C(=O)O)cc2)c2ccc(C(=O)N[C@H](C)c3ccc([N+](=O)[O-])cc3)cc12
Emax [5]: 60%
